# Patent US20060078570A1, “Use of asafetida extract as medicine for abstinence of drugs” (priority 2004, published 2006)
# Counter-ions that a name gives are not always drawn.
# Legend:
# [1] = tested on: subjects addicted to drugs; experiment: Clinical trial: abstinence treatment of subjects addicted to drugs, asafetida injection intramuscularly; assay type: in vivo, human; conditions: 20 cases per group, thrice per day, phenoxyimidazoline hydrochloride 0.1 mg tablet
# Text: The typical performance of abstinence syndrome was as follows: yawning, lacrimation, perspiring, bad mood, anxiety, and dysphoria.
# Apparently effective: the abstinence syndrome disappears completely and performance is normal.
# Effective: the abstinence syndrome is obviously abated.
# Ineffective: the abstinence syndrome has no obvious remission or no remission at all.
# The subjects addicted to drugs were randomly grouped into asafetida injection treatment group, phenoxyimidazoline hydrochloride positive control group, placebo negative control group, wherein the phenoxyimidazoline hydrochloride is a relatively effective medicine for abstinence of drugs at present. The pharmaceuticals and usage thereof in each group were as follows:
# Asafetida injection, 2 ml (equivalent to 1 g of original crude material)/bottle, thrice per day, a bottle per time, injected intramuscularly, for three consecutive days.
# Phenoxyimidazoline hydrochloride, 0.1 mg/tablet, thrice per day, a tablet per time, for three consecutive days.
# Placebo (physiological saline), 2 ml/bottle, thrice per day, a bottle per time, injected intramuscularly, for three consecutive days.
# [2] = tested on: subjects addicted to heroin for over 10 years; experiment: Clinical trial (typical case): subjects addicted to heroin for over 10 years, asafetida injection intravenously; assay type: in vivo, human; conditions: 25 cases per group, heroin over 10 years, phenoxyimidazoline hydrochloride 0.1 mg tablet, thrice per day
# [3] = tested on: morphine-dependent rats; experiment: Naloxone-promoted abstinence experiment in morphine-dependent rats (symptom scores and body weight decrease); assay type: in vivo, Wistar rat
# [4] = three days, asafetida 2 ml i.m.
# [5] = asafetida 5 ml i.v., three days
# [6] = clonidine 0.1 mg/kg perfused, X ± S, n=10
smiles,measurement,setting,value
"Clc1cccc(Cl)c1N=C1NCCN1 [clonidine, phenoxyimidazoline hydrochloride]","Apparently effective, Number of Cases","[1]; three consecutive days, asafetida injection 2 ml (1 g crude material) intramuscularly",13
same,"Apparently effective, %",[1]; [4],65.00%
same,"Effective, %",[1]; [4],35.00%
same,"Effective, Number of Cases",[1]; [4],7
same,"Ineffective, %",[1]; [4],0%
same,"Ineffective, Number of Cases",[1]; [4],0
same,Total effective rate %,[1]; [4],100%
same,"Apparently effective, %",[2]; [5],60.00%
same,"Effective, %",[2]; [5],40.00%
same,"Effective, Number of Cases",[2]; [5],10
same,"Ineffective, %",[2]; [5],0%
same,"Ineffective, Number of Cases",[2]; [5],0
same,Total effective rate %,[2]; [5],100%
same,"Apparently effective, Number of Cases","[2]; three consecutive days, asafetida injection 5 ml (2.5 g crude material) intravenously",15
same,Scores of performance and autonomic nervous system symptoms of rats after naloxone administration,"[3]; clonidine 0.1 mg/kg perfused once a day, three times, 15 min after naloxone 4 mg/kg i.p., mean ± SD, n=10",2.22 ± 2.29
same,Scores of performance and autonomic nervous system symptoms of rats after naloxone administration,"[3]; clonidine 0.1 mg/kg perfused, 30 min after naloxone",2.68 ± 1.81
same,Scores of performance and autonomic nervous system symptoms of rats after naloxone administration,"[3]; clonidine 0.1 mg/kg perfused, 45 min after naloxone",1.21 ± 1.80
same,Scores of performance and autonomic nervous system symptoms of rats after naloxone administration,"[3]; clonidine 0.1 mg/kg perfused, 60 min after naloxone",1.61 ± 1.54
same,Scores of performance and autonomic nervous system symptoms of rats after naloxone administration,"[3]; clonidine 0.1 mg/kg perfused, 90 min after naloxone",0.40 ± 0.68
same,Scores of performance and autonomic nervous system symptoms of rats after naloxone administration,"[3]; clonidine 0.1 mg/kg perfused, 120 min after naloxone",0 ± 0
same,body weight decreasing at 30 min after administrating naloxone,[3]; [6],4.077 ± 3.431 g
same,body weight decreasing at 60 min after administrating naloxone,[3]; [6],5.560 ± 4.960 g
